Where two headings read alike, the source gives them in different places.

One data set deals with HIV-1 LAI (wild type). The experiment in a line: HIV-1 Q-RT-PCR assay in human PBM cells, strain LAI. It is filed as cell-based. The conditions noted are these: 5 days, viral RNA reduced by 90%. As for the experimental part:
(§1) Human PBM cells (1×10^6 cells/T25 flask) were PHA stimulated for 2 or 3 days, and infected with either a wild type (LAI and xxBRU) or a 3TC-resistant (xxBRU 184V) HIV-1 strain at 100 TCID50, as previously described (27). The culture was kept for 5 days in presence of test compounds at serial 1-log dilutions. Subsequently, human PBM cells were removed from the culture supernatant by centrifugation (10 minutes, 400×g, 4° C.). This clarified supernatant was tested either in the RT-assay, or in the Q-RT-PCR assay.
(§2) Viral RNA present in the culture supernatant was prepared using commercially available columns (QIAamp Viral RNA mini Kit, Qiagen, Valencia, Calif.). Viral RNA was detected in real-time by monitoring increases in fluorescence signal that resulted from degradation of a quenched fluorescent probe molecule following the hybridization of the probe to the arnplified viral DNA (TaqMan 7700 chemistry, Applied Biosystems, Foster City, Calif.). The TaqMan probe and primers were designed using the Primer Express software (Applied Biosystems); they cover highly conserved sequences complementary to an 81 base pair long fragment from the HIV-1 RT gene between codon 230 and 257 of the group MHIV-1 genome; • probe 5′-6FAM-[…]-TAMRA-3′ (Sequence 1) • sense primer: 5′-[…]-3′ (Sequence 2); and • antisense primer 5′-[…]-3′ (Sequence 3).
(§3) A total of 5 μL RNA was RT-amplified using reagents and conditions as described by the manufacturer (Applied Biosystems). […] Copy numbers were calibrated using the Roche Amplicor HIV-1 Monitor test™ (Roche Diagnostics, Branchburg, N.J.) on a 1-log dilution series of a clinical HIV-1 genotype B isolate (attenuated in vitro to obtain a high viral load). The 10-6 diluted sample became positive at threshold cycle (Ct=PCR cycle threshold where a sample becomes detectable)=35.52, which corresponded to 1,410 copies/mL in the Roche monitor HIV-1 version II assay. When validated over a dynamic range of 3 logs of virus, there was excellent correlation (r2˜1) between the two methodologies. […] Therefore, the currently designed primer and probe set allowed reliable quantification of both clinical samples and HIV-1 in vitro preparations.
(§4) HIV-1 present in culture supernatant fluids was quantified by two different methodologies: i) the Q-RT-PCR with read-out in log copies/mL; and ii) the endogenous viral RT assay on cell supernatant with read-out in log counts per minute/mL (CPM/mL). Upon addition of antiviral compounds to the culture media, a dose-related decrease in virus production was observed. Although the two methodologies measured different parameters (viral RNA versus active RT enzyme), results were not markedly different from each other. The HIV-1 Q-RT-PCR results were compared with a previously established cell-based antiviral drug evaluation assay (endogenous HIV-1 RT polymerization activity in cell supematant)(27).

Another data set is described as follows: in vitro. The conditions noted are these: human. The method, then: (§5) After a three day-incubation for HepG2, or 5 days for human PBM cells, cell viability and mitochondrial activity were measured in a colorimetric assay using the MTS- or MTT dye method (Promega, Madison, Wis.).
A further data set concerns HIV-1xxBRU. The experiment in a line: Antiviral activity in human PBM cells, HIV-1xxBRU. The conditions noted are these: read-out: xxBRU (EC90). It is filed as cell-based. The text has this:
Human peripheral blood mononuclear (PBM) cells (obtained from Atlanta Red Cross) were isolated by Ficoll-Hypaque discontinuous gradient centrifugation from healthy seronegative donors. Cells were stimulated with phytohemagglutinin A (Difco, Sparks, Md.) for 2-3 days prior to use. HIV-1LAI obtained from the Centers for Disease Control and Prevention (Atlanta, Ga.) was used as the standard reference virus for the antiviral assays. The molecular infetious clones HIV-1xxBru and HIV-1M184Vpin were obtained from Dr. John Mellors (University of Pittsburgh). Infections were done in bulk for one hour, either with 100 TCID50/1×10^7 cells for a flask (T25) assay or with 200 TCID50/6×10^5 cells/well for a 24 well plate assay. Cells were added to a plate or flask containing a ten-fold serial dilution of the test compound. Assay medium was RPMI-1640 supplemented with heat inactivated 16% fetal bovine serum, 1.6 mM L-glutamine, 80 IU/ml penicillin, 80 μg/ml streptomycin, 0.0008% DEAE-Dextran, 0.045% sodium bicarbonate, and 26 IU/ml recombinant interleukin-2 (Chiron Corp, Emeryville, Calif.). […] Untreated and uninfected PBM cells were grown in parallel at equivalent cell concentrations as controls. The cell cultures were maintained in a humidified 5% CO2-air at 37° C. for 5 days and supernatants were collected for reverse transcriptase (RT) activity.
Supernatants were centrifuged at 12,000 rpm for 2 hours to pellet the virus. The pellet was solubilized with vortexing in 100 μl virus solubilization buffer (VSB) containing 0.5% Triton X-100, 0.8 M NaCl, 0.5 mM phenylmethylsulfonyl fluoride, 20% glycerol, and 0.05 M Tris, pH 7.8. Ten μL of each sample were added to 75 μL RT reaction mixture (0.06 M Tris, pH 7.8, 0.012 M MgCl2, 0.006 M dithiothreitol, 0.006 mg/ml poly (rA)n, oligo (dT)12-18, 96 μg/ml dATP, and 1 μM of 0.08 mCi/ml ^3H-thymidine triphosphate (Moravek Biochemicals, Brea, Calif.) and incubated at 37° C. for 2 hours. The reaction was stopped by the addition of 100 μL 10% trichloroacetic acid containing 0.05% sodium pyrophosphate. The acid insoluble product was harvested onto filter paper using a Packard Harvester (Meriden, Conn.), and the RT activity was read on a Packard Direct Beta Counter (Meriden, Conn.). The RT results were expressed in counts per minute (CPM) per milliliter. […]

For data set [1], the system named is 3TC-resistant (xxBRU 184V) HIV-1. As to the kind of experiment: HIV-1 Q-RT-PCR assay in human PBM cells, strain xxBRU 184V. Format: cell-based. The conditions noted are these: for EC90: read-out: Q-RT-PCR HIV-1 assay 184V EC90. The method, then: as §1, §2, §3, §4
The subject of another data set is human PBM cells. As to the kind of experiment: Toxicity assay (MTS/MTT dye), human PBM cells. The conditions noted are these: read-out: Cytotoxicity PBM IC50; human PBM cells, 5 days incubation. The method, then: as §5
Setting [2] is: Human immunodeficiency virus 1, PBMC, 120 h.
[3] abbreviates: Human immunodeficiency virus 1, PBMC.
Setting [4] is: human PBM cells, 5 days, viral RNA reduced by 90%.

`Cc1cn([C@H]2C[C@H](N=[N+]=[N-])[C@@H](CO)O2)c(=O)[nH]c1=O` [AZT, 3′-azido-3′-deoxythymidine, reference compound]: the EC90 with HIV-1 LAI (wild type) (setting [2]) turned out to be 0.03 µM; in the data set with HIV-1xxBRU (setting [3]) it was 0.01 µM; in data set [1] (setting [2]), 0.01 µM. In “in vitro”, this compound showed an IC50 at 3 days of more than 100 µM.
As for `Nc1ccn([C@@H]2CS[C@H](CO)O2)c(=O)n1` [Compound 3TC, (−)-β-2′,3′-dideoxy-3′-thiacytidine, reference compound], the EC90 in the data set on HIV-1 LAI (wild type) (setting [2]) is 0.37 µM; with HIV-1xxBRU (setting [3]), 0.08 µM; in data set [1] (setting [2]), more than 100 µM. For the same compound, in the data set “in vitro”, the IC50 at 3 days is more than 100 µM. Besides, the “Q-RT-PCR HIV-1 assay FI, fold increase (EC90 HIV-1184V/EC90 HIV-1xxBRU)” value (“Q-RT-PCR HIV-1 assay FI, fold increase” below) in data set [1] is recorded as >1,562.
As for `Nc1ccn([C@@H]2C=C(F)[C@H](CO)O2)c(=O)n1` [Compound 10, 1-(2,3-Dideoxy-3-fluoro-β-L-glycero-pent-2-eno-furanosyl)cytosine], the EC90 in the data set with HIV-1 LAI (wild type) (setting [2]) was 50.6 µM; in data set [1] (setting [2]) it was more than 100 µM. In “in vitro”, the IC50 at 3 days is more than 100 µM.
As for `Nc1ccn([C@@H]2C=C(F)[C@H](CO)O2)c(=O)n1` [Compound 23, 1-(2,3-Didcoxy-3-fluoro-β-L-glycero-pent-2-eno-furanosyl)cytosine], the IC50 in the data set with human PBM cells turned out to be 87 µM. Moreover, the results for the EC90 (with HIV-1 LAI (wild type); in data set [1] (setting [4])) were 0.92 µM and 68.4 µM, respectively. In addition, in data set [1], the “Q-RT-PCR HIV-1 assay FI, fold increase” value is 115.
For `Nc1ccn([C@@H]2S[C@H](CO)C=C2F)c(=O)n1` [Compound D-17, (−)-1-[(1S,4R)-2,3-dideoxy-2,3-didehydro-2-fluoro4-thio-β-D-ribofuranosyl]-cytosine], in the data set with human PBM cells, the IC50 is more than 100 µM. Moreover, the EC90 amounted to 24.6 µM with HIV-1 LAI (wild type), 5 µM with HIV-1xxBRU (human PBM cells) and 65.8 µM in data set [1] (setting [4]). The “Q-RT-PCR HIV-1 assay FI, fold increase” value in data set [1] is 12.8.
For the compound `Nc1nc(=O)n([C@@H]2S[C@H](CO)C=C2F)cc1F` [Compound D-18, (−)-1-[(1S,4R)-2,3-dideoxy-2,3-didehydro-2-fluoro-4-thio-β-D-ribofuranosyl]-5-fluorocytosine], the IC50 with human PBM cells was more than 100 µM. In addition, the EC90 (with HIV-1 LAI (wild type); in data set [1] (setting [4])) was more than 100 µM throughout.
As for `Nc1ccn([C@H]2S[C@@H](CO)C=C2F)c(=O)n1` [Compound L-17, (+)-1-[(1S,4R)-2,3-dideoxy-2,3-didehydro-2-fluoro-4-thio-β-L-ribofuranosyl]-cytosine], the IC50 in the data set with human PBM cells is more than 100 µM. Besides, the values for the EC90 (in the data set with HIV-1 LAI (wild type); in the data set with HIV-1xxBRU (human PBM cells); in data set [1] (setting [4])) were 4.1 µM, 1.4 µM and more than 100 µM, respectively. Also, the “Q-RT-PCR HIV-1 assay FI, fold increase” value in data set [1] is more than 50.
For `Nc1nc(=O)n([C@H]2S[C@@H](CO)C=C2F)cc1F` [Compound L-18, (+)-1-[(1S,4R)-2,3-dideoxy-2,3-didehydro-2-fluoro-4-thio-β-L-ribofuranosyl]-5-fluoro-cytosine], in the data set on human PBM cells, the IC50 was more than 100 µM. Besides, the EC90 is 4.3 µM in the data set with HIV-1 LAI (wild type) and more than 100 µM in data set [1] (setting [4]). In data set [1], the “Q-RT-PCR HIV-1 assay FI, fold increase” value is more than 100.

As a reminder, the EC90 is the point of the concentration-response curve where the effect stands at 90%. Broadly, the IC50 is the concentration at which inhibition is half-maximal.

Values taken from US6949522B2, “β-2′- or 3′-halonucleosides” (Pharmasset, Inc., priority 2001, dated 2005).
